We go through three molecules from US20170202854A1, “Method for Treatment of Primary Hormone Resistant Endometrial and Breast Cancers” (Lipoxen Technologies Limited, priority 2014, published 2017).

In one experiment the test system is MDA-MB-468 tumor cells. As to conditions: day 21, alone or with SC 6 mg/mouse i.m. twice a week. As to the method:
The MDA-MB-468 (ATCC collection number ATCC® HTB-132, Neve et al., Cancer Cell 2006, 10:515-527) tumor cells (the xenograft of human primary ER-negative breast cancer) were maintained in vitro as a monolayer culture in L-15 medium supplemented with 10% heat inactivated fetal bovine serum, 100 U/ml penicillin and 100 μg/ml streptomycin, and L-glutamine (2 mM) at 37° C. in an atmosphere of 5% CO2 in air. The tumor cells were routinely subcultured twice weekly by trypsin-EDTA treatment. The cells growing in an exponential growth phase were harvested and counted for tumor inoculation.
BALB/c nude (Shanghai Sino-British SIPPR/BK Laboratory Animal Co., Ltd.), 6-8 weeks old female mice were inoculated subcutaneously at the right flank with MDA-MB-468 tumor cells (1×10^7) in 0.2 ml of PBS supplemented with BD Matrigel (1:1) for tumor development. The treatments were started on day 17 after tumor inoculation when the average tumor size reached approximately 170 mm^3. […] Each group consisted of 8 tumor-bearing mice.
Tumor size was measured twice weekly in two dimensions using a caliper, and the volume was expressed in mm3 using the formula: V=0.5 a×b2 where a and b are the long and short diameters of the tumor, respectively.
Significance level was assumed as 0.05.

Experiment [1] relates to human primary PR-negative endometrial cancer cells HEC-1B. Nature of the experiment: Mouse model of primary PR-negative endometrial cancer (HEC-1B xenograft). It is filed as in vivo, BNX nu/nu mice. As to conditions: mean±SD of 20 tumors, MA 10 mg/day i.p. 5 days/week, SC 0.3 mg/kg i.m. each alternate day. The procedure:
Treatment was started on the next day after the injection and discontinued after 5 weeks. Cohorts (10 mice/group) received either:
1) Vehicle control group: vehicle only, 0.9% sodium chloride for injection i.m each alternate day and i.p. for 5 days/week. 2) MA only control group: megestrol acetate (MA) (10 mg/day) i.p. for 5 days/week.
Tumors were measured every week with vernier calipers. Tumor size was calculated using the formula: A (length)×B (width)×C (height)×0.5236.

The test system of experiment [2] is secondary PR negative Ishikawa cells. As to the kind of experiment: Model of secondary PR-negative endometrial cancer (progestin-resistant Ishikawa xenograft). In kind it is in vivo, MF-1 female nude mice. As to conditions: MPA 250 mg/kg/day i.p. 5 days per week, SC 0.3 mg/kg i.m. each alternate day. As to the method: to obtain the secondary progestin-resistant subclones of human endometrial cancer cells, initially progestin sensitive PR-positive effect parent Ishikawa cells were routinely cultured in DMEM/F12 medium supplemented with 5% fetal bovine serum and medroxyprogesterone acetate (MPA) with 2.5 μM increases in MPA concentration (1.0-10 μM) every 4 weeks at 37° C. in a humidified atmosphere of 5% CO2. When the surviving cells had grown to a high density but were still less than confluent, cells were subcloned using 0.02% EDTA and 0.25% trypsin prepared in Hanks' balanced salt solution. MPA-containing medium was replaced every 2-3 days. Cells proliferating in 10 μM MPA with the same doubling time as the initial Ishikawa cells proliferating in the medium without MPA, were considered as secondary progestin-resistant Ishikawa cells. […] 2×10^6 secondary PR negative Ishikawa cells were inoculated into the flanks of MF-1 female nude mice in 100 μl Matrigel.
1) Vehicle control group: vehicle only, −0.9% sodium chloride for injection i.m each alternate day and i.p. for 5 days per week. 2) MPA only control group: medroxyprogesterone acetate (MPA) (250 mg/kg/day) i.p. for 5 days per week.
Tumors were measured with vernier calipers weekly. Tumor volumes (mm^3) were calculated using the modified ellipsoid formula: (length (mm)×width (mm)^2)/2. The ratio (percentage) of “Tumor volume at day n” to “tumor volume at day “0” was calculated for each animal. At the end of the experiments (day 35) animals were euthanized.

Setting [3] is: TAM 50 mg/kg oral gavage every day.
Setting [4] is: TAM 100 mg/kg oral gavage every day.

Molecules are shown by their SMILES. Like-named read-outs stand apart in the source and are kept apart here.

Regarding `CC/C(=C(\c1ccccc1)c1ccc(OCCN(C)C)cc1)c1ccccc1` [TAM, Tamoxifen], the TGI in the experiment on MDA-MB-468 tumor cells (setting [3]) is on record as −65%; in the experiment with MDA-MB-468 tumor cells (setting [4]) it was −1%. The “Tumor volume” value in the experiment on MDA-MB-468 tumor cells (setting [3]) came to 473 ± 59 mm^3; with MDA-MB-468 tumor cells (setting [4]) it was 355 ± 25 mm^3.
For `CC(=O)O[C@]1(C(C)=O)CC[C@H]2[C@@H]3C=C(C)C4=CC(=O)CC[C@]4(C)[C@H]3CC[C@@]21C` [MA, megestrol acetate], the Tumor volume in experiment [1] (Week 1) was 58 ± 16 mm^3; in experiment [1] (Week 2), 177 ± 19 mm^3; in experiment [1] (Week 3), 510 ± 66 mm^3; in experiment [1] (Week 4), 794 ± 111 mm^3; in experiment [1] (Week 5), 1383 ± 151 mm^3.
Turning to `CC(=O)O[C@]1(C(C)=O)CC[C@H]2[C@@H]3C[C@H](C)C4=CC(=O)CC[C@]4(C)[C@H]3CC[C@@]21C` [MPA, medroxyprogesterone acetate], the “Tumor volume at day n/tumor volume at day "0", %, mean ± SEM” value in experiment [2] (Day 7) came to 170 ± 19%; in experiment [2] (Day 14), 412 ± 36%; in experiment [2] (Day 21), 512 ± 66%; in experiment [2] (Day 28) it was 822 ± 89%; in experiment [2] (Day 35), 1224 ± 99%.
